Source: patent US20040019095A1, “N, N'-dimethylated N-confused porphyrins” (priority 2002, published 2004)

Assay: Singlet oxygen test with DPBF (decay of DPBF absorption at 418 nm on irradiation)
Format: physicochemical
Conditions: solution of DPBF and porphyrin salt irradiated with halogen lamp, filter ~700 nm; b88: four 20 seconds intervals
Description: Alternatively, the ability to generate singlet oxygen may be tested as follows. DPBF (1,3-diphenylisobenzofuran)^8 is used to determine the ability of N,N′-dimethylated N-confused porphyrin salts to generate singlet oxygen. DPBF reacts quickly with singlet oxygen and its absorption decay around 418 nm can be easily monitored. […] A solution containing DPBF and N,N′-dimethylated N-confused porphyrin salts (e.g. compound 9 in FIG. 3) was irradiated with a halogen lamp using a filter (˜700 nm), and monitored by UV-vis spectroscopy at 418 nm.
Pyrrole (Acros) was distilled from CaH2 before use. The silica gel was 230-400 mesh Silicycle). Activity III basic alumina was obtained by adding 6% water to activity I Brockman basic alumina, 60-325 mesh (Fisher). All other materials and solvents were used as received. The NMR spectra were recorded on a Bruker WH-400 or a Bruker AV-400 in the solvents indicated and were referenced to residual solvent peaks. Elemental analyses were performed on a Carlo Erba Elemental Analyzer1108. The UV-vis spectra were measured on a Cary 50. Mass spectra were determined on a KRATOS Concept IIHQ hybrid mass spectrometer. Irradiations were carried with a 250 W Osram HLX 64655 […] in an Oriel lamp housing (model 66184). The light output passed through a glass filter: P70-700-S-Corion. […]

## N,N′-Dimethylated 2-aza-5,10,15,20-tetra(p-tolyl)-21-carba-porphyrin.HI [compound 9]
  decay of UV-vis signal at 418 nm (singlet oxygen generation): Substantial decay
